Measurements published in patent publication EP1746090A1, “Sustituted pyrazoline compounds, having predetermined stereochemistry, for reducing triglycerides in blood” (Laboratorios del Dr. Esteve S.A., priority 2005, dated 2007).

System: male mice B6 Lep ob/ob
Assay: In-vivo testing for regulation of triglycerides in blood plasma (obese mice on high fat diet)
Conditions: obese mice fed with high fat diet for 7 weeks; 30 mg/kg/day, p.o., 14 days; whole blood, test strips "Lipid panel"
Description: This effect is probed in obese mice fed with high fat diet. In the following paragraphs the method of this study is described.
The study is done using six weeks old male mice B6 Lep ob/ob, obtained from Charles River (France). Mice are divided in 3 groups: I (control), II (vehicle), III (example 0).
The animals of the group I receive the standard diet (D-12450B, Research Diets, NJ, USA).
The animals of the groups II and III are fed with a High Fat Diet (D-12492, Research Diets, NJ, USA), in both cases for 7 weeks (References 1 and 2).
The animals of the groups III are fed with a High Fat Diet (D-12492, Research Diets, NJ, USA), in both cases for 7 weeks (References 1 and 2).
At the end of the feeding period of 7 weeks, the treatment period (14 days) is started: Group II mice receive the vehicle (10 ml/kg/day, po, of the aqueous solution of acacia gum, 5% W/V). Group III is administered with 30 mg/kg/day, p.o., of the inventive compound (R)-5-(4-chlorophenyl)-1-(2,4-dichlorophenyl)-4,5-dihydro-pyrazole-3-carboxylic acid according to Example 0. […] The three groups of mice have the same diet than in the previous period.
At the end of the 14 days period of treatment, the blood levels of triglicerides of the animals are determined. […]

**Q.** For “(S)-5-(4-chlorophenyl)-1-(2,4-dichlorophenyl)-4,5-dihydro-pyrazole-3-carboxylic acid [example 0]”, which “blood levels of triglicerides” value is on record?
**A.** inhibitor of high blood levels of triglicerides
